Assay results: patent US7919274B2, “Light-emitting fusion proteins and diagnostic and therapeutic methods therefor” (Dana-Farber Cancer Institute, Inc., priority 2001, dated 2011)
Ends that are not written are not given here.

How the values were obtained:
[1] = In vitro degradation assay with xenopus egg extracts; type: biochemical; details: room temperature
Procedure: Xenopus egg extracts were made as is well known in the art and stored frozen until use. Degradation reactions contained 8 μl of egg extract, 0.1 μl of 100 mg/ml cyclohexamide, 0.25 μl of energy regeneration mix, 0.25 μl of bovine ubiquitin, and 0.4 μl of ^35S-radiolabeled HIF and were carried out at room temperature. At the indicated timepoints 1 μl aliquots were removed and placed in sample buffer. Samples were resolved on 5-15% gradient gels and analyzed by autoradiography. Biotinylated HIF (556-575) peptides were incubated with rabbit reticulocyte lysate, washed, eluted with free biotin, and analyzed by mass spectrometry. 1 μg of HPLC-purified peptide was bound to 30 μl monomeric avidin Sepharose and incubated with 100 μl of rabbit reticulocyte lysate at room temperature for 1 hour with tumbling. Following brief centrifugation the reticulocyte lysate was removed, fresh reticulocyte lysate was added, and the cycle was repeated 6 times. The Sepharose was then washed 4 times with NETN and once with PBS. The modified peptide was eluted in 50 μl of 20 mM ammonium acetate [pH 7.0], 2 mM biotin. […] This peak was not detectable prior to incubation with reticulocyte lysate and was not detected in the corresponding reticulocyte-treated Leu562Ala and Pro564Ala peptides (FIG. 6A). […] Following visualization of standards with ninhydrin radiolabeled proline was detected by autoradiography. […]

COS7 cells = test: Anti-HA immunoblot of transiently transfected COS7 cells; type: cell-based
Procedure: (A) depicts in vitro ubiquitination of ^35S-labeled wild-type, Leu562A, and Pro564A Gal4-HA-HIF1α (530-652) in the presence of S100 extracts prepared from pVHL-defective renal carcinoma cells stably transfected to produce wild-type pVHL or with empty vector. […] (C) is an anti-HA immunoblot analysis of COS7 cells transiently transfected with 1.5 or 3.5 μg of plasmids encoding wild-type or P564A HA-HIF1α in the absence or presence of desferoxamine.

HA-pVHL bound HIF = target: T1, HA-pVHL bound HIF (Homo sapiens, UniProt P40337); test: Peptide elution of HIF coimmunoprecipitated with HA-pVHL from ts20 cells; type: binding; details: 7 μg peptide in 65 μl PBS
T1 construct: expressed in transfected cells; host or cells: ts20 cells stably transfected with pIRES-HA-VHL, G418-selected
Procedure: Individual G418-resistant colonies were isolated using cloning cylinders and expanded. Cells producing HA-VHL or HA-VHL (Y98H) were identified by anti-HA immunoblot analysis. […] For the tests shown in FIG. 5C, ts20 cells were grown at the restrictive or permissive temperature for 14 hours, methionine-starved for 90 min, and then grown in the methionine-free media supplemented with ^35S-met ([…]) for 90 min.

cdk2 = target: T2, cdk2 (Homo sapiens, UniProt P24941); test: GST pull-down assay with GST-cdk2; type: binding; details: 35S-labeled in vitro translates
T2 construct: made in house
Procedure: (§1) FIG. 11 illustrates that cyclin box is required for transcriptional repression by DNA bound cyclin A. (A) U2OS cells were cotransfected with plasmids encoding the indicated TETr-cyclin A variants along with the pUHC 13-3 reporter plasmid and a plasmid encoding β-galactosidase. Cell extracts were prepared and luciferase activity, corrected for β-galactosidase activity, was expressed as fold repression relative to cells producing TETr alone. (B) The indicated TETr-cyclin A variants were translated in vitro in the presence of ^35S-methionine and incubated with GST-cdk2 and glutathione Sepharose. […] In parallel, 20% of the input proteins were resolved by SDS-polyacrylamide gel electrophoresis and detected by autoradiography. (c) pRB defective SAOS-2 cells transfected so as to produce HA-tagged pRB along with the indicated TETr-cyclin A variants were lysed and immunoblotted with anti-HA antibody.
Glutathione S-transferase pull-down assays were performed basically as described previously (Kaelin et al., 1991). Binding reactions contained 10 μl of ^35S-radiolabelled in vitro translates made with a TNT kit (Promega) and approximately 1 μg of the indicated GST fusion protein in 1 ml of NETN (20 mM Tris [pH 8], 100 mM NaCl, 1 mM EDTA, 0.5% Nonidet P-40). Following 1 hour incubation at 4° C. with rocking, the Sepharose was washed 5 times with NETN. […]

[2] = tested on: TETo-driven luciferase reporter plasmid (pUHC13-3); test: TETr-fusion transcriptional luciferase reporter gene assay in U2OS cells; type: cell-based, human; details: pUHC13-3 reporter
Procedure: (A) is a schematic of reporter plasmid (pUHC 13-3) that contains seven TETracycline operator sequences (TETo) upstream of a minimal CMV promoter that includes a TATA box. (B, C) show U2OS cells were cotransfected with plasmids encoding the indicated TETr fusion proteins along with the pUHC 13-3 reporter plasmid and a plasmid encoding β-galactosidase. Numbers shown at the bottom of the graph indicate the amount of TETr plasmid (in μg). 48 hours later luciferase activity, normalized for β-galactosidase, was determined. Fold repression is the corrected luciferase value for TETr alone divided by the corrected luciferase values for the indicated TETr fusion proteins. Fold activation represents the corrected luciferase values for the indicated TETr fusion proteins divided by the corrected luciferase value for TETr alone. […]
For TETr-fusion transcriptional assay, subconfluent U2OS cells were transiently transfected in 6-well plates in duplicate with 1 μg of […], 1 μg of pUHC13-3 reporter plasmid, and 3 μg of the indicated plasmids encoding TETr-fusion proteins. […] 48 hours after transfection luciferase activity and β-galactosidase activity was determined as described previously (Qin, 1995).

pRB = pRB phosphorylation in pRB-defective SAOS-2 cells; type: cell-based, human; details: cointroduced with HA-tagged pRB into SAOS-2 cells
Procedure: FIG. 8 illustrates the production of TETr-cyclins A and E. (A) is a schematic of TETr-cyclin fusion protein. […] The % of transfected cells in G1 and S phase was determined by fluororescence activated cell sorting (FACS).
as §1

[3] = Luciferase activity of in vitro translate; type: biochemical; details: versus wild-type luciferase
[4] = target: T3, pVHL (GST-VHL, elongin B, elongin C complex) (Homo sapiens, UniProt P40337); test: VBC-GST pulldown of 35S-labeled in vitro translated proteins; type: binding
T3 construct: made in house; host or cells: E. coli

[5] = tested on: Hela cells xenograft tumors; test: Imaging of ODD-Luc in xenograft tumors in nude mice; type: in vivo; details: subcutaneous Hela tumors, versus Luc sites
Procedure: Polyclonal Hela cells stably transfected with ODD-Luc and Luc were generated. The clones were suspended in PBS and counted. 10^6 cells per injection site were administered subcutaneously in duplicate into the flanks of nude mice (FIG. 18). Upon growth of palpable tumors (approximately 3-4 days) the mice were given intraperitoneal injections of phenobarbital for anesthesia, injected with a weight-adjusted dose of luciferin, and whole body imaged with a Xenogen Camera. To ensure that the difference in luciferase activity was not simply a function of tumor size alone, bidimensional tumor measurements were taken and were approximately equal.

HeLa cells = test: Luciferase activity in transiently transfected HeLa cells; type: cell-based
Procedure: To begin to ask whether the ODD-Luc was oxygen sensitive in cells, transient transfection assays were performed. In the first set of experiments, 100 mm tissue culture plates were seeded with 8×10^5 HeLa cells per plate. Eighteen hours later the cells were transiently transfected, using lipofectamine (Gibco), with the pcDNA3 plasmids encoding ODD-Luc or wild-type Luc along with an internal control plasmid encoding Renilla luciferase. Twenty-four hours after transfection the cells were split into 6 well plates and allowed to adhere and grow for 8-12 hours. At this point the hypoxia mimetics desferrioxamine (DFO) or cobalt chloride (CoCl2) were added directly to the media at final concentrations of 500 μM and 200 μM respectively, in duplicate wells. In addition, some wells were not treated so as to serve as controls. 12 hours after treatment with DFO and CoCl2 the cells were lysed with Passive Lysis Buffer (Promega), rocked at room temperature for 20 minutes, and assayed for Firefly and Renilla Luciferase according to the manufacturers instructions. Results were obtained in duplicate and averaged. (FIG. 17). Luciferase activity in HeLa cells containing pcDNA3 plasmids encoding wild-type Luc are presented in the first three bars from the left; while luciferase activity in HeLa cells containing pcDNA3 plasmids encoding ODD-Luc are presented in the fourth through sixth bars from the left.

T3 sequence (P40337 whole entry): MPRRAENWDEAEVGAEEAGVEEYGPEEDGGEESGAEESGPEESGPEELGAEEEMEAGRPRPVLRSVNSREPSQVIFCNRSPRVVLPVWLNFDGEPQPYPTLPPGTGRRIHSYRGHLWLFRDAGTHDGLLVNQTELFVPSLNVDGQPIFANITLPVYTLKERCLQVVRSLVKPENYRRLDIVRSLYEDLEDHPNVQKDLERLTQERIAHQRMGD
T3 sequence (Q15370 whole entry partner): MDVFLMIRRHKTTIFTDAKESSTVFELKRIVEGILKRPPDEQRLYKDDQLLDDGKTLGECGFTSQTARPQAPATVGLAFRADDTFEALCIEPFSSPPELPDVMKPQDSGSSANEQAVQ
T3 sequence (Q15369 whole entry partner): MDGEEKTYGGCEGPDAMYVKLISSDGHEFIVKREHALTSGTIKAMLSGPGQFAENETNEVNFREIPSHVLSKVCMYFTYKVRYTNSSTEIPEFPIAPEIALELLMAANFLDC
T1 sequence (P40337 whole entry): as the sequence (P40337 whole entry) above
T1 sequence (P62869 whole entry partner): as the sequence (Q15370 whole entry partner) above, with D40E, C89R, S110G counted along it
T1 sequence (P83940 whole entry partner): as the sequence (Q15369 whole entry partner) above

## HIF1α Pro564Ala: HIF1α with Proline 564 converted to alanine
[1]
  stability relative to wild-type HIF1α: far more stable
COS7 cells
  sensitivity to the hypoxia-mimetic desferoxamine: insensitive

## HIF (556-575) Pro564Ala peptide: HIF (556-575) peptide with Pro564Ala substitution (DLDLEMLAAYIPMDDDFQLR)
HA-pVHL bound HIF
  elution of HIF bound to HA-pVHL: not eluted

## HIF1α Leu562Ala: HIF1α with Leu562Ala mutation
[1]
  stability relative to wild-type HIF1α: far more stable

## Cyclin A (1-310): cyclin A fragment 1-310 fused to TETr
cdk2
  binding to cdk2: does not bind to cdk2
[2]
  transcriptional effect on TETo-driven luciferase reporter: repressed transcription
pRB
  pRB phosphorylation: cannot direct the phosphorylation of pRB

## ODD-Luc: Firefly luciferase fused in-frame to HIF1α amino acids 555-575 (ODD) (TDLDLEMLAPYIPMDDDFQLR; also: fused to firefly luciferase (not shown))
[3]
  luciferase activity in vitro: comparable to wild-type luciferase
[4]; translated in vitro in rabbit reticulocyte lysate
  binding of pVHL (GST-VBC pulldown): bound
[4]; wheat germ produced
  binding of pVHL (GST-VBC pulldown): did not bind
[5]
  luciferase signal at injection sites (whole body imaging): attenuated luciferase signal
HeLa cells; after addition of hypoxia-mimetics
  induced luciferase levels versus wild-type luciferase: comparable
HeLa cells; untreated HeLa cells grown in the presence of oxygen
  luciferase values relative to wild-type Luc: approximately 30%
